Data taken from PMC5891627, “Binding Specificity of Two PBPs in the Yellow Peach Moth Conogethes punctiferalis (Guenée)” (Frontiers in Physiology, 2018).
Like-named read-outs stand apart in the source and are kept apart here.

What was measured:
[1] = target: CpunPBP2 (Conogethes punctiferalis, UniProt A0A1D6X8W8); experiment: Fluorescence displacement (competitive, 1-NPN) binding assay; settings: for IC50: 1-NPN 2 μM as fluorescent reporter, 2 μM protein; for binding affinity to CpunPBP2 (in words): ranking among the 24 tested ligands
Description: (§1) The fluorescence intensity was recorded on a FluoroMax-4 spectrophotometer (Horiba Scientific, USA) at room temperature using a 1 cm light path fluorimeter quartz cuvette. The fluorescent probe N-phenyl-1-naphthylamine (1-NPN) and all the tested chemicals were dissolved in HPLC purity methanol. The final concentration was prepared 1 mM. […] The fluorescence of 1-NPN was excited at 337 nm and emission spectra were recorded between […]. […] The GraphPad Prism 5 (GraphPad Software, Inc.) was used to estimate the K1−NPN (KD of complex protein /1-NPN) values by nonlinear regression for a unique site of binding. It was assumed that the proteins were 100% active, with a stoichiometry of 1:1 (protein:ligand) at saturation. […] In the equation, [1-NPN] is the free concentration of 1-NPN, and K1−NPN is the dissociation constant of the complex protein /1-NPN.

[2] = target: CpunPBP5 (Conogethes punctiferalis, UniProt A0A0M4FIS7); experiment: as above; settings: for binding affinity to CpunPBP5 (in words): ranking among the 24 tested ligands
Description: as §1

[3] = ratio of fluorescence intensity at the pheromone concentration of 6 mM to the initial fluorescence intensity, pH = 7.4, read-out: Int (%)
[4] = read-out: KD (μM), calculated dissociation constant, pH = 7.4, calculated from IC50: KD = [IC50]/(1+[1-NPN]/K1-NPN)
[5] = pH = 7.4, calculated from IC50: KD = [IC50]/(1+[1-NPN]/K1-NPN), read-out: KD (μM), calculated dissociation constant
[6] = pH = 7.4, 1-NPN 2 μM as fluorescent reporter, 2 μM protein, read-out: IC50
[7] = ratio of fluorescence intensity at the pheromone concentration of 6 mM to the initial fluorescence intensity, pH = 7.4

Sequence of CpunPBP2 (A0A1D6X8W8 entry or part of it): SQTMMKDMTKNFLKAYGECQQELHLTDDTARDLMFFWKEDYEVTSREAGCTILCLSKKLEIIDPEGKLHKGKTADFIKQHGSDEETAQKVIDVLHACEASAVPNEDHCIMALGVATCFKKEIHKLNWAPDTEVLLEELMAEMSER
Sequence of CpunPBP5 (A0A0M4FIS7 entry or part of it): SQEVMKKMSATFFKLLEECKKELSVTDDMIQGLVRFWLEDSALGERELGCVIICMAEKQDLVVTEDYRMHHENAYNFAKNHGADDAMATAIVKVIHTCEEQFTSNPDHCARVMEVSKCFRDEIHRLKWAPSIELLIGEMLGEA

Compound	IC50 ([1]; pH = 7.4) [µM]	binding affinity to CpunPBP2 (in words) [1]	activity at 6000 µM [1, 3] [%]	Kd [1, 4] [µM]	IC50 [2] [µM]	Kd [2] [µM]	activity at 6000 µM [2, 3] [%]	IC50 ([1]; pH = 7.4, read-out: IC50) [µM]	Kd [1, 5] [µM]	IC50 [2, 6] [µM]	Kd [2, 5] [µM]	Int (%) [1, 7] [%]	Int (%) [2, 7] [%]	activity at 6000 µM ([1]; pH 7.4, read-out: Int (%)) [%]	activity at 6000 µM ([2]; pH 7.4, read-out: Int (%)) [%]	binding affinity to CpunPBP5 (in words) [2]	Kd ([1]; read-out: dissociation constant (KD) of CpunPBP2/1-NPN complex, direct titration of 2 μM protein with 1-NPN, Scatchard plot, pH 7.4) [µM]
CC1=CCC2CC1C2(C)C (stereo not drawn) [α-pinene]	27.9 ± 4.3	minimum binding affinities	77.7 ± 0.33	16.2 ± 2.5	14.1 ± 1.26	11.4 ± 1.02	74.88 ± 0.39	–	–	–	–	–	–	–	–	–	–
CCCCCCCCC=O [Nonanal]	–	–	77.22 ± 0.07	–	–	–	65.83 ± 0.28	14.7 ± 0.47	8.5 ± 0.27	13.1 ± 0.62	10.6 ± 0.78	–	–	–	–	–	–
C=CC(=C)CC/C=C(\C)CCC=C(C)C [β-farnesene]	–	–	–	–	–	–	–	2.82 ± 0.19	1.63 ± 0.11	5.25 ± 0.02	4.25 ± 0.02	40.51 ± 0.78	47.47 ± 0.12	–	–	–	–
CCCCCCCCCCCCCCCC(=O)O [Palmitic acid]	–	–	73.64 ± 0.06	–	–	–	53.54 ± 0.01	14.2 ± 0.71	8.27 ± 0.41	7.27 ± 0.06	5.89 ± 0.47	–	–	–	–	–	–
CCCCCCCCCCC=O [Undecanal]	–	–	56.59 ± 0.32	–	–	–	58.66 ± 0.31	7.49 ± 0.15	4.34 ± 0.08	8.67 ± 0.04	7.01 ± 0.03	–	–	–	–	–	–
CCCCCCCCCCCCCCO [1-tetrodecanol]	3.94 ± 0.14	highest binding affinity	–	2.28 ± 0.08	3.53 ± 0.03	2.86 ± 0.02	–	–	–	–	–	–	–	45.55 ± 0.38	42.29 ± 0.12	highest binding affinity	–
CCCCC/C=C/C=O [Trans-2-octanal]	–	–	–	–	–	–	–	12.3 ± 0.84	7.15 ± 0.49	12.2 ± 0.66	9.89 ± 0.53	62.32 ± 0.13	62.12 ± 0.30	–	–	–	–
CC(=O)/C=C/C1C(C)=CCCC1(C)C (stereo not drawn) [α-ionone]	10.7 ± 0.97	–	–	6.22 ± 0.56	8.39 ± 0.1	6.79 ± 0.08	–	–	–	–	–	–	–	61.8 ± 1.49	55.28 ± 0.1	–	–
C=C(C)[C@H]1CC=C(C)CC1 [Limonene]	–	–	–	–	–	–	–	11.9 ± 0.67	6.92 ± 0.39	10.7 ± 0.22	8.67 ± 0.18	82.86 ± 0.44	60.13 ± 0.09	–	–	–	–
C=CC(C)(O)CCC=C(C)C (centres unmarked) [Linalool]	22 ± 4.72	minimum binding affinities	72.27 ± 0.43	12.8 ± 2.74	17 ± 1.42	13.7 ± 1.15	66.92 ± 0.13	–	–	–	–	–	–	–	–	minimum binding abilities	–
CCC(C)CCCC(C)C (centres unmarked) [2,6-Dimethyloctane]	–	–	78.17 ± 0.43	–	–	–	54.82 ± 0.07	11 ± 0.32	6.38 ± 0.19	8.2 ± 0.1	6.64 ± 0.08	–	–	–	–	–	–
CCCCCCCCCC=O [Decanal]	–	–	72.86 ± 0.24	–	–	–	72.6 ± 0.11	13.1 ± 0.24	7.62 ± 0.14	15.2 ± 0.6	12.5 ± 0.49	–	–	–	–	–	–
CCCCCC/C=C/C=O [Trans-2-nonenal]	–	minimum binding affinities	86.46 ± 0.38	–	–	–	59 ± 0.62	22.3 ± 1.3	12.9 ± 0.76	9.62 ± 0.58	7.79 ± 0.48	–	–	–	–	–	–
CCCCCCC=O [Heptanal]	–	–	84.85 ± 0.31	–	–	–	68.32 ± 0.21	17.9 ± 0.83	10.4 ± 0.48	19.7 ± 0.95	15.9 ± 0.77	–	–	–	–	minimum binding abilities	–
Hexenal	–	minimum binding affinities	–	–	–	–	–	34.56 ± 0.12	20 ± 0.68	11.7 ± 0.66	9.44 ± 0.53	83.11 ± 0.15	60.86 ± 0.49	–	–	–	–
CC(=O)/C=C/C1=C(C)CCCC1(C)C [β-ionone]	17.3 ± 0.84	–	–	10.1 ± 0.49	12.2 ± 0.47	9.85 ± 0.38	–	–	–	–	–	–	–	88.04 ± 0.58	62.6 ± 0.79	–	–
C=C1CC/C=C(\C)CC[C@@H]2[C@@H]1CC2(C)C (relative stereo) [Trans-caryopyllene]	–	–	–	–	–	–	–	6.17 ± 0.14	3.58 ± 0.08	4.67 ± 0.02	3.78 ± 0.01	50.42 ± 0.51	45.87 ± 0.10	–	–	–	–
c1ccc(Nc2cccc3ccccc23)cc1 [1-NPN, N-phenyl-1-naphthylamine, reference compound]	–	–	–	–	–	0.58 ± 0.04	–	–	–	–	–	–	–	–	–	–	0.76 ± 0.1
C=C1CCC2CC1C2(C)C (stereo not drawn) [β-pinene]	21 ± 2.26	minimum binding affinities	–	12.2 ± 1.31	11.5 ± 0.39	9.3 ± 0.31	–	–	–	–	–	–	–	80.45 ± 0.68	68.43 ± 0.63	–	–
COc1cc(C=O)ccc1O [Vanillin]	19.9 ± 1	–	85.4 ± 0.31	11.6 ± 0.58	25.1 ± 2.9	20.4 ± 2.35	71.19 ± 0.36	–	–	–	–	–	–	–	–	minimum binding abilities	–
CC/C=C\CCO [cis-3-hexen-1-ol]	34.5 ± 3.2	minimum binding affinities	–	20 ± 1.85	18.4 ± 1.38	14.9 ± 1.12	–	–	–	–	–	–	–	89.59 ± 0.25	66.81 ± 0.61	minimum binding abilities	–
